# Test results published in patent publication US8252832B2, “Kinesin inhibitors as cancer therapeutics” (Novartis AG, priority 2007, dated 2012).
# Where two headings read alike, the source gives them in different places.
# Tested on: panel of cell lines derived from hematological malignancies
# Experiment: Cell survival assay, CellTiter-Glo readout after 48 hours, hematological panel
# Format: cell-based
# Parameters: key to Differential: panel average log(GI50) minus cell line log(GI50); positive = more sensitive
# Protocol: Compound IIa was tested against a panel of cell lines derived from hematological malignancies in a cell survival assay using CellTiter-Glo® as a readout after 48 hours in the presence of compound. Table 18 lists the type of hematological malignancy, the name of the sample, its GI50 (concentration needed to achieve 50% growth inhibition) value in the assay, the logarithm of the GI50 (log(GI50), and the relative sensitivity of each sample (Differential). The differential is calculated by subtracting the log(GI50) for each cell line from the average log(GI50) across the entire panel (0.236 in this case); a positive value indicates a sample that is more sensitive than average, whereas a negative value indicates a sample that is less sensitive than average.
smiles,measurement,setting,value
CC(C)(C)[C@H](c1nc(-c2cc(F)ccc2F)cn1Cc1ccccc1)N(CC[C@H](N)CF)C(=O)CO [Compound IIa],Differential,697 (ALL),0.613
same,GI50,"48 h, 697 (ALL), read-out: GI50",0.11 nM
same,GI50,"48 h, 697 (ALL), read-out: Log(GI50) (converted)",0.105 nM
same,GI50,"48 h, AML-193 (AML), read-out: GI50",0.11 nM
same,GI50,"48 h, AML-193 (AML), read-out: Log(GI50) (converted)",0.11 nM
same,GI50,"48 h, DEL (NHL), read-out: GI50",0.28 nM
same,GI50,"48 h, DEL (NHL), read-out: Log(GI50) (converted)",0.283 nM
same,GI50,"48 h, H929-Luc (MM), read-out: GI50",1.69 nM
same,GI50,"48 h, H929-Luc (MM), read-out: Log(GI50) (converted)",1.69 nM
same,GI50,"48 h, HEL92 (AML), read-out: GI50",0.49 nM
same,GI50,"48 h, HEL92 (AML), read-out: Log(GI50) (converted)",0.49 nM
same,GI50,"48 h, HH (NHL), read-out: GI50",0.22 nM
same,GI50,"48 h, HH (NHL), read-out: Log(GI50) (converted)",0.215 nM
same,GI50,"48 h, KMS11-Luc (MM), read-out: GI50",0.29 nM
same,GI50,"48 h, KMS11-Luc (MM), read-out: Log(GI50) (converted)",0.29 nM
same,GI50,"48 h, KMS12 (MM), read-out: GI50",0.29 nM
same,GI50,"48 h, KMS12 (MM), read-out: Log(GI50) (converted)",0.29 nM
same,GI50,"48 h, KMS18-Luc (MM), read-out: GI50",0.52 nM
same,GI50,"48 h, KMS18-Luc (MM), read-out: Log(GI50) (converted)",0.518 nM
same,GI50,"48 h, Karpas-299-Luc (NHL), read-out: GI50",20.2 nM
same,GI50,"48 h, Karpas-299-Luc (NHL), read-out: Log(GI50) (converted)",20.2 nM
same,GI50,"48 h, LP1 (MM), read-out: GI50",0.21 nM
same,GI50,"48 h, LP1 (MM), read-out: Log(GI50) (converted)",0.205 nM
same,GI50,"48 h, MHH-CALL-2 (ALL), read-out: GI50",0.32 nM
same,GI50,"48 h, MHH-CALL-2 (ALL), read-out: Log(GI50) (converted)",0.315 nM
same,GI50,"48 h, MHH-CALL-3 (ALL), read-out: GI50",0.2 nM
same,GI50,"48 h, MHH-CALL-3 (ALL), read-out: Log(GI50) (converted)",0.2 nM
same,GI50,"48 h, MM1-S-Luc (MM), read-out: GI50",0.23 nM
same,GI50,"48 h, MM1-S-Luc (MM), read-out: Log(GI50) (converted)",0.23 nM
same,GI50,"48 h, MOLM13-Luc (AML), read-out: GI50",0.23 nM
same,GI50,"48 h, MOLM13-Luc (AML), read-out: Log(GI50) (converted)",0.226 nM
same,GI50,"48 h, MUTZ-5 (ALL), read-out: GI50",10 nM
same,GI50,"48 h, MUTZ-5 (ALL), read-out: Log(GI50) (converted)",10 nM
same,GI50,"48 h, MV4, 11Luc (AML), read-out: GI50",0.11 nM
same,GI50,"48 h, MV4, 11Luc (AML), read-out: Log(GI50) (converted)",0.105 nM
same,GI50,"48 h, Mean across the entire panel, read-out: GI50",0.43 nM
same,GI50,"48 h, Mean across the entire panel, read-out: Log(GI50) (converted)",0.431 nM
same,GI50,"48 h, NALM-19 (ALL), read-out: GI50",0.19 nM
same,GI50,"48 h, NALM-19 (ALL), read-out: Log(GI50) (converted)",0.19 nM
same,GI50,"48 h, REH (ALL), read-out: GI50",0.18 nM
same,GI50,"48 h, REH (ALL), read-out: Log(GI50) (converted)",0.18 nM
same,GI50,"48 h, RL (NHL), read-out: GI50",20 nM
same,GI50,"48 h, RL (NHL), read-out: Log(GI50) (converted)",20 nM
same,GI50,"48 h, SEM-Luc (ALL), read-out: GI50",0.15 nM
same,GI50,"48 h, SEM-Luc (ALL), read-out: Log(GI50) (converted)",0.15 nM
same,GI50,"48 h, SR (NHL), read-out: GI50",0.11 nM
same,GI50,"48 h, SR (NHL), read-out: Log(GI50) (converted)",0.11 nM
same,GI50,"48 h, TANOUE (ALL), read-out: GI50",10 nM
same,GI50,"48 h, TANOUE (ALL), read-out: Log(GI50) (converted)",10 nM
same,GI50,"48 h, YT (ALL), read-out: GI50",10 nM
same,GI50,"48 h, YT (ALL), read-out: Log(GI50) (converted)",10 nM
same,GI50,"48 h, hematological panel, read-out: average log(GI50) across the entire panel (converted)",1.72 nM
same,Differential,AML-193 (AML),0.593
same,Differential,CCRF-CEM (ALL),0.419
same,Differential,CCRF-HSB-2 (ALL),0.367
same,Differential,DEL (NHL),0.182
same,Differential,DOHH2 (NHL),0.263
same,Differential,H929 (MM),0.109
same,Differential,H929-Luc (MM),−0.593
same,Differential,HDLM-2 (HL),0.555
same,Differential,HEL92 (AML),−0.056
same,Differential,HH (NHL),0.301
same,Differential,HL60 (AML),0.416
same,Differential,HL60-Luc (AML),−0.072
same,GI50,"HL-60-Luc, 48 h, HL60-Luc (AML), read-out: GI50",0.51 nM
same,GI50,"HL-60-Luc, 48 h, HL60-Luc (AML), read-out: Log(GI50) (converted)",0.508 nM
same,GI50,"Homo sapiens, CCRF-CEM, 48 h, CCRF-CEM (ALL), read-out: GI50",0.16 nM
same,GI50,"Homo sapiens, CCRF-CEM, 48 h, CCRF-CEM (ALL), read-out: Log(GI50) (converted)",0.164 nM
same,GI50,"Homo sapiens, CCRF-HSB-2, 48 h, CCRF-HSB-2 (ALL), read-out: GI50",0.19 nM
same,GI50,"Homo sapiens, CCRF-HSB-2, 48 h, CCRF-HSB-2 (ALL), read-out: Log(GI50) (converted)",0.185 nM
same,GI50,"Homo sapiens, DOHH-2, 48 h, DOHH2 (NHL), read-out: GI50",0.24 nM
same,GI50,"Homo sapiens, DOHH-2, 48 h, DOHH2 (NHL), read-out: Log(GI50) (converted)",0.235 nM
same,GI50,"Homo sapiens, HDLM-2, 48 h, HDLM-2 (HL), read-out: GI50",0.12 nM
same,GI50,"Homo sapiens, HDLM-2, 48 h, HDLM-2 (HL), read-out: Log(GI50) (converted)",0.12 nM
same,GI50,"Homo sapiens, HL-60, 48 h, HL60 (AML), read-out: GI50",0.17 nM
same,GI50,"Homo sapiens, HL-60, 48 h, HL60 (AML), read-out: Log(GI50) (converted)",0.165 nM
same,GI50,"Homo sapiens, HuT78, 48 h, HuT78 (NHL), read-out: GI50",0.28 nM
same,GI50,"Homo sapiens, HuT78, 48 h, HuT78 (NHL), read-out: Log(GI50) (converted)",0.275 nM
same,GI50,"Homo sapiens, K562, 48 h, K562 (CML), read-out: GI50",0.21 nM
same,GI50,"Homo sapiens, K562, 48 h, K562 (CML), read-out: Log(GI50) (converted)",0.209 nM
same,GI50,"Homo sapiens, KARPAS-299, 48 h, Karpas-299 (NHL), read-out: GI50",0.2 nM
same,GI50,"Homo sapiens, KARPAS-299, 48 h, Karpas-299 (NHL), read-out: Log(GI50) (converted)",0.2 nM
same,GI50,"Homo sapiens, KARPAS-422, 48 h, Karpas-422 (NHL), read-out: GI50",5.14 nM
same,GI50,"Homo sapiens, KARPAS-422, 48 h, Karpas-422 (NHL), read-out: Log(GI50) (converted)",5.14 nM
same,GI50,"Homo sapiens, KM-H2, 48 h, KM-H2 (HL), read-out: GI50",0.23 nM
same,GI50,"Homo sapiens, KM-H2, 48 h, KM-H2 (HL), read-out: Log(GI50) (converted)",0.233 nM
same,GI50,"Homo sapiens, KMS-11, 48 h, KMS11 (MM), read-out: GI50",0.48 nM
same,GI50,"Homo sapiens, KMS-11, 48 h, KMS11 (MM), read-out: Log(GI50) (converted)",0.483 nM
same,GI50,"Homo sapiens, Kasumi 1, 48 h, Kasumi-1 (AML), read-out: GI50",0.44 nM
same,GI50,"Homo sapiens, Kasumi 1, 48 h, Kasumi-1 (AML), read-out: Log(GI50) (converted)",0.44 nM
same,GI50,"Homo sapiens, L-363, 48 h, L363 (MM), read-out: GI50",0.13 nM
same,GI50,"Homo sapiens, L-363, 48 h, L363 (MM), read-out: Log(GI50) (converted)",0.13 nM
same,GI50,"Homo sapiens, L-428, 48 h, L428 (HL), read-out: GI50",20 nM
same,GI50,"Homo sapiens, L-428, 48 h, L428 (HL), read-out: Log(GI50) (converted)",20 nM
